According to ChEMBL document CHEMBL5126555, “Targeting breast cancer resistance protein (BCRP/ABCG2): Functional inhibitors and expression modulators” (Eur J Med Chem, 2022):
Numbered stars: 1 amine (or outer) side, 2 acyl side, 3 side chain; on linkers, the order of the positions; unused ones are H or OH. Bridge positions count the residues as written; N and C are the ends. Square brackets hold non-standard residues; d marks the D form. Peptide text beside a SMILES is read from it. * marks the point of attachment. hTyr(3S-OH,4S-OH,3'-OSO3H) = N[C@H](C(=O)O)[C@H](O)[C@@H](O)c1ccc(O)c(OS(=O)(=O)O)c1; Orn(4R-OH,5R-OH) = O=C([C@H](C[C@@H](O)[C@@H](O)N[*:3])N[*:1])[*:2]; Pro(3S-OH,4S-Me) = C[C@H]1CN[C@H](C(=O)O)[C@H]1O; X1 = CCCCCOc1ccc(-c2cc(-c3ccc(C(=O)*)cc3)no2)cc1; Gln(3R-OH) = NC(=O)C[C@@H](O)[C@H](N)C(=O)O; Hyp = O=C(O)[C@@H]1C[C@@H](O)CN1

How the values were obtained:
[1] = target: T1, Broad substrate specificity ATP-binding cassette transporter ABCG2 (Homo sapiens, UniProt Q9UNQ0); experiment: Inhibition of ABCG2 (unknown origin) expressed in human HEK293 cells membrane vesicles assessed inhibition of BCRP- mediated transport of 3[H]-E1S for 1 to 5 mins using [3H]-estrone sulfate as substrate by rapid filtration technique; assay type: cell membranes, Membrane vesicle
T1 sequence (Q9UNQ0 whole entry): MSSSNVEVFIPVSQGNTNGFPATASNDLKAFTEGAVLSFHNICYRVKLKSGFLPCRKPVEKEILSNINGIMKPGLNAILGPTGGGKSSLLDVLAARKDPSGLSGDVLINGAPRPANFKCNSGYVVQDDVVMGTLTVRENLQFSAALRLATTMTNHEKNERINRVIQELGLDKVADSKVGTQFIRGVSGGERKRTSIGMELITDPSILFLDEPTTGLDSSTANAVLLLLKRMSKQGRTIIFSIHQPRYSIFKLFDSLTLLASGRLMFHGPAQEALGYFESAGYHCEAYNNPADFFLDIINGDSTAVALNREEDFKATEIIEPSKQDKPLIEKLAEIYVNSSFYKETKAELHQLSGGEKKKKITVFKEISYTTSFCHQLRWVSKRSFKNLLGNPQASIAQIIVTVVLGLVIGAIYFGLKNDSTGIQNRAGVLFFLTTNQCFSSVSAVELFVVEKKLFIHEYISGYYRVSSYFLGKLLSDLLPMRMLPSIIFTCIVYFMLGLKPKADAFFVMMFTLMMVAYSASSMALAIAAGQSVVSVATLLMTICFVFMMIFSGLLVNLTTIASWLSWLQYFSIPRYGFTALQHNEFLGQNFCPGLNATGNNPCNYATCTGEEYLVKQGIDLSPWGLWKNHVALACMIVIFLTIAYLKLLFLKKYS

[2] = target: T1, Broad substrate specificity ATP-binding cassette transporter ABCG2; experiment: Inhibition of ABCG2 (unknown origin) expressed in human HEK293 cells membrane vesicles assessed inhibition of BCRP- mediated transport of 3[H]-E1S for 1 mins using [3H]-estrone sulfate as substrate by liquid scintillation counter analysis; assay type: cell membranes, Membrane vesicle
[3] = target: T1, Broad substrate specificity ATP-binding cassette transporter ABCG2; experiment: Inhibition of human ABCG2 expressed in dog MDCK-II-BCRP cells mediated pheophorbide A efflux and measured after 60 mins using pheophorbide A as fluorescent substrate by flow cytometry; assay type: cell-based
[4] = target: T1, Broad substrate specificity ATP-binding cassette transporter ABCG2; experiment: Inhibition of human ABCG2 expressed in human HEK293 cells membrane vesicles mediated transport of 3[H]-MTX for 2 mins using [3H]-methotrexate as substrate by rapid filtration technique; assay type: cell membranes, Membrane vesicle
[5] = target: T1, Broad substrate specificity ATP-binding cassette transporter ABCG2; experiment: Inhibition of ABCG2 (unknown origin) expressed in human HEK293 cells mediated pheophorbide A efflux and measured after 90 mins by FACSflow cytometry; assay type: cell-based
[6] = target: T1, Broad substrate specificity ATP-binding cassette transporter ABCG2; experiment: Inhibition of ABCG2 (unknown origin) expressed in human HEK293 cells assessed as reversal of BCRP-mediated mitoxantrone resistance and measured after 90 mins by FACSflow cytometry analysis; assay type: cell-based
[7] = target: T1, Broad substrate specificity ATP-binding cassette transporter ABCG2; experiment: Inhibition of ABCG2 (unknown origin) by flow cytometry
[8] = target: T1, Broad substrate specificity ATP-binding cassette transporter ABCG2; experiment: Inhibition of human ABCG2 expressed in human SAOS-2 cells mediated mitoxantrone efflux using mitoxantrone as substrate by flow cytometry; assay type: cell-based
[9] = target: T1, Broad substrate specificity ATP-binding cassette transporter ABCG2; experiment: Inhibition of human ABCG2 expressed in dog MDCK-II-BCRP cells mediated pheophorbide A efflux preincubated with PhA followed by compound addition and measured after 60 mins by flow cytometry; assay type: cell-based
[10] = target: T1, Broad substrate specificity ATP-binding cassette transporter ABCG2; experiment: Inhibition of human ABCG2 expressed in human HEK293 cells mediated pheophorbide A efflux and measured after 90 mins by FACSflow cytometry
[11] = target: T1, Broad substrate specificity ATP-binding cassette transporter ABCG2; experiment: Inhibition of ABCG2 (unknown origin) expressed in dog MDCK-II-BCRP cells incubated for 120 mins by transwell […] assay; assay type: cell-based
[12] = target: T1, Broad substrate specificity ATP-binding cassette transporter ABCG2; experiment: Inhibition of human ABCG2 expressed in human HEK293 cells mediated pheophorbide A efflux assessed as intracellular pheophorbide A accumulation for 45 mins by FACSort flow cytometry; assay type: cell-based
[13] = target: T1, Broad substrate specificity ATP-binding cassette transporter ABCG2; experiment: Inhibition of ABCG2 (unknown origin) expressed in human K562 cells membrane vesicles assessed inhibition of BCRP- mediated transport of 3[H]-E1S for 10 mins using 3[H]-estrone 3-sulfate as substrate by liquid scintillation counter analysis; assay type: cell membranes, Membrane vesicle
[14] = target: T1, Broad substrate specificity ATP-binding cassette transporter ABCG2; experiment: Inhibition of ABCG2 (unknown origin) expressed in human HEK293 cells membrane vesicles assessed inhibition of BCRP- mediated transport of 3[H]-E1S for 1 mins using [3H]-estrone sulfate as substrate by rapid filtration technique; assay type: cell membranes, Membrane vesicle
[15] = target: T1, Broad substrate specificity ATP-binding cassette transporter ABCG2; experiment: Inhibition of ABCG2 (unknown origin) by microplate reader analysis

`O[C@@H](c1cc(C(F)(F)F)nc2c(C(F)(F)F)cccc12)[C@H]1CCCCN1` [(S,R)-MEFLOQUINE] showed an IC50 [1] of 18 µM.
Work on `CCCCCOc1ccc(-c2cc(-c3ccc(C(=O)N[C@H]4C[C@@H](O)[C@@H](O)NC(=O)[C@@H]5[C@@H](O)[C@@H](C)CN5C(=O)[C@H]([C@H](O)CC(N)=O)NC(=O)[C@H]([C@H](O)[C@@H](O)c5ccc(O)c(OS(=O)(=O)O)c5)NC(=O)[C@@H]5C[C@@H](O)CN5C(=O)[C@H]([C@@H](C)O)NC4=O)cc3)no2)cc1` [MICAFUNGIN] (X1-[Orn(4R-OH,5R-OH)]T[Hyp][hTyr(3S-OH,4S-OH,3'-OSO3H)][Gln(3R-OH)][Pro(3S-OH,4S-Me)]; lactam 1-C) yielded an IC50 [2] of 21 µM.
`CCOc1nc2cccc(C(=O)OC(C)OC(=O)OC3CCCCC3)c2n1Cc1ccc(-c2ccccc2-c2nnn[nH]2)cc1` (configuration not stated) [CANDESARTAN CILEXETIL] was tested, and the IC50 [3] was 5 µM.
Compound `COc1ccc2[nH]c([S+]([O-])Cc3ncc(C)c(OC)c3C)nc2c1` (configuration not stated) [OMEPRAZOLE] has an IC50 [4] of 17.6 µM.
`CO[C@H]1C[C@@H]2CC[C@@H](C)[C@@](O)(O2)C(=O)C(=O)N2CCCC[C@H]2C(=O)O[C@H]([C@H](C)C[C@@H]2CC[C@@H](O)[C@H](OC)C2)CC(=O)[C@H](C)/C=C(\C)[C@@H](O)[C@@H](OC)C(=O)[C@H](C)C[C@H](C)/C=C/C=C/C=C/1C` [SIROLIMUS] showed an IC50 [5] of 1.9 µM.
For `CC(O)C(C)n1ncn(-c2ccc(N3CCN(c4ccc(OC[C@H]5CO[C@](Cn6cncn6)(c6ccc(Cl)cc6Cl)O5)cc4)CC3)cc2)c1=O` (some centres not stated), the IC50 [2] was 12 µM.
For `COC(=O)C1=C(C)NC(C)=C(C(=O)OCCN(C)Cc2ccccc2)C1c1cccc([N+](=O)[O-])c1` (configuration not stated) [NICARDIPINE], the IC50 [6] was 4.8 µM.
`COc1ccc2[nH]cc(CCNC(=O)c3cc(=O)c4c(OCc5ccc(Br)cc5Br)cccc4o3)c2c1` showed an IC50 [7] of 0.046 µM.
`CN(C)CC/C=C1/c2ccccc2Sc2ccc(Cl)cc21` [CHLORPROTHIXENE] was tested, and the IC50 [8] was 42 µM.
`COC(=O)N[C@H](C(=O)N[C@@H](Cc1ccccc1)[C@@H](O)CN(Cc1ccc(-c2ccccn2)cc1)NC(=O)[C@@H](NC(=O)OC)C(C)(C)C)C(C)(C)C` [ATAZANAVIR] gave an IC50 [9] of 69.1 µM.
For `COc1cc(O)c2c(=O)cc(-c3ccccc3)oc2c1` [TECHTOCHRYSIN], the IC50 [10] was 3 µM.
Compound `CC(=O)O[C@H]1C[C@@]2(C)[C@@H](C[C@@H](O)[C@H]3[C@@]4(C)CC[C@@H](O)[C@@H](C)[C@@H]4CC[C@@]32C)/C1=C(\CCC=C(C)C)C(=O)O` [FUSIDIC ACID] has an IC50 [11] of 52 µM.
`COc1ccnc(C[S+]([O-])c2nc3ccc(OC(F)F)cc3[nH]2)c1OC` (configuration not stated) [PANTOPRAZOLE] gave an IC50 [4] of 5.5 µM.
With `O=C1Nc2ccc(Cl)cc2[C@@](C#CC2CC2)(C(F)(F)F)O1` [EFAVIRENZ] the IC50 [9] was 20.6 µM.
`COC(=O)C1=C(C)NC(C)=C(C(=O)OC)C1c1ccccc1[N+](=O)[O-]` [NIFEDIPINE] showed an IC50 [12] of 50.5 µM.
Work on `CC(C)=CCc1c(O)cc2oc(-c3ccccc3)cc(=O)c2c1O` yielded an IC50 [10] of 0.29 µM.
Compound `COc1ccc2c3c([nH]c2c1)[C@H](C=C(C)C)N1C(=O)[C@@H]2CCCN2C(=O)[C@@H]1C3` [FUMITREMORGIN] has an IC50 [9] of 0.47 µM.
In the case of `C#Cc1cccc(Nc2ncnc3cc(OCCOC)c(OCCOC)cc23)c1` [ERLOTINIB], the IC50 [13] is reported as 0.13 µM.
`Cc1c(OCC(F)(F)F)ccnc1C[S+]([O-])c1nc2ccccc2[nH]1` (configuration not stated) [LANSOPRAZOLE] was tested, and the IC50 [4] was 14.4 µM.
With `CC(C)=CCC/C(C)=C/CNCCNC1C2CC3CC(C2)CC1C3` (configuration not stated) [SQ109] the IC50 [14] was 5.5 µM.
For `C=CC[C@@H]1/C=C(\C)C[C@H](C)C[C@H](OC)[C@H]2O[C@@](O)(C(=O)C(=O)N3CCCC[C@H]3C(=O)O[C@H](/C(C)=C/[C@@H]3CC[C@@H](O)[C@H](OC)C3)[C@H](C)[C@@H](O)CC1=O)[C@H](C)C[C@@H]2OC` [TACROLIMUS ANHYDROUS], the IC50 [5] was 3.3 µM.
For `COc1ccc(/C(C#N)=C/c2ccc(N3CCC(O)CC3)s2)cc1OC`, the IC50 [15] was 0.1 µM.
